# Source: the supplement of paper PMC9663587
# Experiments:
# YKL-5-124 = compound: C=CC(=O)Nc1ccc(C(=O)Nc2[nH]nc3c2CN(C(=O)N[C@H](CN(C)C)c2ccccc2)C3(C)C)cc1 [YKL-5-124]; experiment: increase in dead-cell fraction, 72 h; higher = more death;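 further: breast cancer cell lines in 384-well plates, stained with Hoechst plus LIVE/DEAD far red dye and imaged, cells above an LDR intensity threshold counted dead, Hoechst-negative corpses included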
# THZ531 [1] = compound: T1, CN(C)C/C=C/C(=O)Nc1ccc(C(=O)N2CCC[C@@H](Nc3ncc(Cl)c(-c4c[nH]c5ccccc45)n3)C2)cc1 [THZ531]; experiment: as above
# [2] = compound: CCc1cnn2c(NCc3ccc[n+]([O-])c3)cc(N3CCCC[C@H]3CCO)nc12; experiment: as above
# BSJ-03-123 [3] = compound: T2, CC(=O)c1c(C)c2cnc(Nc3ccc(N4CCN(CCOCCOCCOCCNC(=O)COc5cccc6c5C(=O)N(C5CCC(=O)NC5=O)C6=O)CC4)cn3)nc2n(C2CCCC2)c1=O [BSJ-03-123]; experiment: as above
# Neratinib/HKI272 [4] = compound: T3, CCOc1cc2ncc(C#N)c(Nc3ccc(OCc4ccccn4)c(Cl)c3)c2cc1NC(=O)/C=C/CN(C)C [Neratinib/HKI272]; experiment: as above
# THZ1 = compound: CN(C)C/C=C/C(=O)Nc1ccc(C(=O)Nc2cccc(Nc3ncc(Cl)c(-c4c[nH]c5ccccc45)n3)c2)cc1 [THZ1]; experiment: as above
# Vorinostat = compound: O=C(CCCCCCC(=O)Nc1ccccc1)NO [Vorinostat]
# Ceritinib/LDK378 = compound: Cc1cc(Nc2ncc(Cl)c(Nc3ccccc3S(=O)(=O)C(C)C)n2)c(OC(C)C)cc1C1CCNCC1 [Ceritinib/LDK378]
# Taselisib/GDC0032 = compound: Cc1nc(-c2cn3c(n2)-c2ccc(-c4cnn(C(C)(C)C(N)=O)c4)cc2OCC3)n(C(C)C)n1 [Taselisib/GDC0032]
# INK128/MLN0128 = compound: CC(C)n1nc(-c2ccc3oc(N)nc3c2)c2c(N)ncnc21 [INK128/MLN0128]
# AZD2014 = compound: CNC(=O)c1cccc(-c2ccc3c(N4CCOC[C@@H]4C)nc(N4CCOC[C@@H]4C)nc3n2)c1 [AZD2014]
# [5] = compound: CC(=O)c1c(C)c2cnc(Nc3ccc(N4CCNCC4)cn3)nc2n(C2CCCC2)c1=O
# THZ531 [6] = compound: T1, THZ531
# Dasatinib = compound: Cc1nc(Nc2ncc(C(=O)Nc3c(C)cccc3Cl)s2)cc(N2CCN(CCO)CC2)n1 [Dasatinib]
# BSJ-01-175 = compound: CN(C)C/C=C/C(=O)Nc1ccc(O[C@@H]2CCC[C@@H](Nc3ncc(Cl)c(-c4c[nH]c5ccccc45)n3)C2)cc1 [BSJ-01-175]
# [7] = compound: CO[C@@H](C)Cn1c(=O)n(C)c2cnc3ccc(-c4cncc(C(C)(C)O)c4)cc3c21
# Rucaparib = compound: CNCc1ccc(-c2[nH]c3cc(F)cc4c3c2CCNC4=O)cc1 [Rucaparib]
# BSJ-03-123 [8] = compound: T2, BSJ-03-123
# [9] = compound: CC(=O)Nc1cccc(-n2c(=O)n(C3CC3)c(=O)c3c(Nc4ccc(I)cc4F)n(C)c(=O)c(C)c32)c1
# Volasertib/BI6727 = compound: CC[C@@H]1C(=O)N(C)c2cnc(Nc3ccc(C(=O)N[C@H]4CC[C@H](N5CCN(CC6CC6)CC5)CC4)cc3OC)nc2N1C(C)C [Volasertib/BI6727]
# Doxorubicin = compound: COc1cccc2c1C(=O)c1c(O)c3c(c(O)c1C2=O)C[C@@](O)(C(=O)CO)C[C@@H]3O[C@H]1C[C@H](N)[C@H](O)[C@H](C)O1 [Doxorubicin]
# Neratinib/HKI272 [10] = compound: T3, Neratinib/HKI272
# 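Wherever GR50, 72 h is given: breast cancer and non-malignant breast epithelial cell lines, Deep Dye Drop or Dye Drop imaging, nine half-log doses, GR normalized to time-zero plates and DMSO-only controls.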
cell line,measurement,setting,value
SUM52PE,increase in dead-cell fraction,YKL-5-124; 0.001 µM,0.0072
same,increase in dead-cell fraction,YKL-5-124; 0.003162 µM,0.0054
same,increase in dead-cell fraction,YKL-5-124; 0.01 µM,0.0099
same,increase in dead-cell fraction,YKL-5-124; 0.03162 µM,0.0108
same,increase in dead-cell fraction,YKL-5-124; 0.1 µM,0.013
same,increase in dead-cell fraction,YKL-5-124; 0.3162 µM,0.0189
same,increase in dead-cell fraction,YKL-5-124; 1 µM,0.009
same,increase in dead-cell fraction,YKL-5-124; 3.162 µM,0.0202
same,increase in dead-cell fraction,YKL-5-124; 10 µM,0.0275
same,increase in dead-cell fraction,THZ531 [1]; 0.0001 µM,-0.0007
same,increase in dead-cell fraction,THZ531 [1]; 0.0003162 µM,0.0017
same,increase in dead-cell fraction,THZ531 [1]; 0.001 µM,-0.0005
same,increase in dead-cell fraction,THZ531 [1]; 0.003162 µM,-0.0003
same,increase in dead-cell fraction,THZ531 [1]; 0.01 µM,-0.0005
same,increase in dead-cell fraction,THZ531 [1]; 0.03162 µM,0.0015
same,increase in dead-cell fraction,THZ531 [1]; 0.1 µM,0.0054
same,increase in dead-cell fraction,THZ531 [1]; 0.3162 µM,0.0857
same,increase in dead-cell fraction,THZ531 [1]; 1 µM,0.311
same,increase in dead-cell fraction,[2]; 0.0001 µM,0.0037
same,increase in dead-cell fraction,[2]; 0.0003162 µM,0.0003
same,increase in dead-cell fraction,[2]; 0.001 µM,0.0018
same,increase in dead-cell fraction,[2]; 0.003162 µM,0.0012
same,increase in dead-cell fraction,[2]; 0.01 µM,0.006
same,increase in dead-cell fraction,[2]; 0.03162 µM,0.101
same,increase in dead-cell fraction,[2]; 0.1 µM,0.333
same,increase in dead-cell fraction,[2]; 0.3162 µM,0.419
same,increase in dead-cell fraction,[2]; 1 µM,0.155
same,increase in dead-cell fraction,BSJ-03-123 [3]; 0.001 µM,-0.0027
same,increase in dead-cell fraction,BSJ-03-123 [3]; 0.003162 µM,0.001
same,increase in dead-cell fraction,BSJ-03-123 [3]; 0.01 µM,0.0043
same,increase in dead-cell fraction,BSJ-03-123 [3]; 0.03162 µM,0.0027
same,increase in dead-cell fraction,BSJ-03-123 [3]; 0.1 µM,0.0025
same,increase in dead-cell fraction,BSJ-03-123 [3]; 0.3162 µM,0.0035
same,increase in dead-cell fraction,BSJ-03-123 [3]; 1 µM,0.0021
same,increase in dead-cell fraction,BSJ-03-123 [3]; 3.162 µM,0.0075
same,increase in dead-cell fraction,BSJ-03-123 [3]; 10 µM,0.025
same,increase in dead-cell fraction,Neratinib/HKI272 [4]; 0.0003162 µM,-0.0009
same,increase in dead-cell fraction,Neratinib/HKI272 [4]; 0.001 µM,0.0018
same,increase in dead-cell fraction,Neratinib/HKI272 [4]; 0.003162 µM,0.0022
same,increase in dead-cell fraction,Neratinib/HKI272 [4]; 0.01 µM,0.0007
same,increase in dead-cell fraction,Neratinib/HKI272 [4]; 0.03162 µM,0.0026
same,increase in dead-cell fraction,Neratinib/HKI272 [4]; 0.1 µM,0.0033
same,increase in dead-cell fraction,Neratinib/HKI272 [4]; 0.3162 µM,0.0005
same,increase in dead-cell fraction,Neratinib/HKI272 [4]; 1 µM,0.0053
same,increase in dead-cell fraction,Neratinib/HKI272 [4]; 3.162 µM,0.0166
same,increase in dead-cell fraction,THZ1; 0.0001 µM,0.0004
same,increase in dead-cell fraction,THZ1; 0.0003162 µM,0.0008
same,increase in dead-cell fraction,THZ1; 0.001 µM,0.0052
same,increase in dead-cell fraction,THZ1; 0.003162 µM,0.0023
same,increase in dead-cell fraction,THZ1; 0.01 µM,0.002
same,increase in dead-cell fraction,THZ1; 0.03162 µM,0.061
same,increase in dead-cell fraction,THZ1; 0.1 µM,0.093
same,increase in dead-cell fraction,THZ1; 0.3162 µM,0.137
same,increase in dead-cell fraction,THZ1; 1 µM,0.513
same,"GR50, 72 h",Vorinostat,4.26 µM
same,"GR50, 72 h",Ceritinib/LDK378,> 10 µM
same,"GR50, 72 h",Taselisib/GDC0032,0.0267 µM
same,"GR50, 72 h",INK128/MLN0128,0.0172 µM
same,"GR50, 72 h",AZD2014,0.0163 µM
same,"GR50, 72 h",[5],0.564 µM
same,"GR50, 72 h",THZ531 [6],0.149 µM
same,"GR50, 72 h",Dasatinib,0.238 µM
same,"GR50, 72 h",BSJ-01-175,0.0947 µM
same,"GR50, 72 h",[7],0.0079 µM
same,"GR50, 72 h",Rucaparib,> 10 µM
same,"GR50, 72 h",BSJ-03-123 [8],3.42 µM
same,"GR50, 72 h",[9],> 1 µM
same,"GR50, 72 h",Volasertib/BI6727,0.0198 µM
same,"GR50, 72 h",Doxorubicin,0.049 µM
same,"GR50, 72 h",Neratinib/HKI272 [10],3.11 µM
MDAMB415,increase in dead-cell fraction,YKL-5-124; 0.001 µM,0.0047
same,increase in dead-cell fraction,YKL-5-124; 0.003162 µM,-0.0002
same,increase in dead-cell fraction,YKL-5-124; 0.01 µM,0.0066
same,increase in dead-cell fraction,YKL-5-124; 0.03162 µM,0.0051
same,increase in dead-cell fraction,YKL-5-124; 0.1 µM,0.0109
same,increase in dead-cell fraction,YKL-5-124; 0.3162 µM,0.0176
same,increase in dead-cell fraction,YKL-5-124; 1 µM,0.0019
same,increase in dead-cell fraction,YKL-5-124; 3.162 µM,0.0153
same,increase in dead-cell fraction,YKL-5-124; 10 µM,0.0261
same,increase in dead-cell fraction,THZ531 [1]; 0.0001 µM,0.003
same,increase in dead-cell fraction,THZ531 [1]; 0.0003162 µM,0.0003
same,increase in dead-cell fraction,THZ531 [1]; 0.001 µM,0.0038
same,increase in dead-cell fraction,THZ531 [1]; 0.003162 µM,0.0023
same,increase in dead-cell fraction,THZ531 [1]; 0.01 µM,0.0067
same,increase in dead-cell fraction,THZ531 [1]; 0.03162 µM,0.0049
same,increase in dead-cell fraction,THZ531 [1]; 0.1 µM,0.0372
same,increase in dead-cell fraction,THZ531 [1]; 0.3162 µM,0.104
same,increase in dead-cell fraction,THZ531 [1]; 1 µM,0.104
same,increase in dead-cell fraction,[2]; 0.0001 µM,-0.001
same,increase in dead-cell fraction,[2]; 0.0003162 µM,0.0007
same,increase in dead-cell fraction,[2]; 0.001 µM,-0.0017
same,increase in dead-cell fraction,[2]; 0.003162 µM,0.0007
same,increase in dead-cell fraction,[2]; 0.01 µM,0.0031
same,increase in dead-cell fraction,[2]; 0.03162 µM,0.0447
same,increase in dead-cell fraction,[2]; 0.1 µM,0.152
same,increase in dead-cell fraction,[2]; 0.3162 µM,0.12
same,increase in dead-cell fraction,[2]; 1 µM,0.154
same,increase in dead-cell fraction,BSJ-03-123 [3]; 0.001 µM,-0.001
same,increase in dead-cell fraction,BSJ-03-123 [3]; 0.003162 µM,0.0018
same,increase in dead-cell fraction,BSJ-03-123 [3]; 0.01 µM,0.0044
same,increase in dead-cell fraction,BSJ-03-123 [3]; 0.03162 µM,0.0034
same,increase in dead-cell fraction,BSJ-03-123 [3]; 0.1 µM,0.0066
same,increase in dead-cell fraction,BSJ-03-123 [3]; 0.3162 µM,0.0057
same,increase in dead-cell fraction,BSJ-03-123 [3]; 1 µM,0.0048
same,increase in dead-cell fraction,BSJ-03-123 [3]; 3.162 µM,0.0092
same,increase in dead-cell fraction,BSJ-03-123 [3]; 10 µM,0.0219
same,increase in dead-cell fraction,Neratinib/HKI272 [4]; 0.0003162 µM,-0.0004
same,increase in dead-cell fraction,Neratinib/HKI272 [4]; 0.001 µM,0
same,increase in dead-cell fraction,Neratinib/HKI272 [4]; 0.003162 µM,0.0031
same,increase in dead-cell fraction,Neratinib/HKI272 [4]; 0.01 µM,-0.0015
same,increase in dead-cell fraction,Neratinib/HKI272 [4]; 0.03162 µM,0.0006
same,increase in dead-cell fraction,Neratinib/HKI272 [4]; 0.1 µM,0.0036
same,increase in dead-cell fraction,Neratinib/HKI272 [4]; 0.3162 µM,0.0023
same,increase in dead-cell fraction,Neratinib/HKI272 [4]; 1 µM,0.0057
same,increase in dead-cell fraction,Neratinib/HKI272 [4]; 3.162 µM,0.017
same,increase in dead-cell fraction,THZ1; 0.0001 µM,0.0048
same,increase in dead-cell fraction,THZ1; 0.0003162 µM,0.0014
same,increase in dead-cell fraction,THZ1; 0.001 µM,0.0046
same,increase in dead-cell fraction,THZ1; 0.003162 µM,-0.0013
same,increase in dead-cell fraction,THZ1; 0.01 µM,0.0061
same,increase in dead-cell fraction,THZ1; 0.03162 µM,0.0106
same,increase in dead-cell fraction,THZ1; 0.1 µM,0.0295
same,increase in dead-cell fraction,THZ1; 0.3162 µM,0.0604
same,increase in dead-cell fraction,THZ1; 1 µM,0.13
same,"GR50, 72 h",Vorinostat,2.92 µM
same,"GR50, 72 h",Ceritinib/LDK378,3.76 µM
same,"GR50, 72 h",Taselisib/GDC0032,0.293 µM
same,"GR50, 72 h",INK128/MLN0128,0.0102 µM
same,"GR50, 72 h",AZD2014,0.006 µM
same,"GR50, 72 h",[5],0.0304 µM
same,"GR50, 72 h",THZ531 [6],0.0474 µM
same,"GR50, 72 h",Dasatinib,0.236 µM
same,"GR50, 72 h",BSJ-01-175,0.0616 µM
same,"GR50, 72 h",[7],< 0.001 µM
same,"GR50, 72 h",Rucaparib,> 10 µM
same,"GR50, 72 h",BSJ-03-123 [8],1.36 µM
same,"GR50, 72 h",[9],0.278 µM
same,"GR50, 72 h",Volasertib/BI6727,0.0112 µM
same,"GR50, 72 h",Doxorubicin,0.00521 µM
same,"GR50, 72 h",Neratinib/HKI272 [10],1.65 µM
